One assay has as its system HUVEC. Briefly: HUVEC assay, endothelial cell proliferation. Type of assay: cell-based. Particulars: Homo sapiens.
For a further assay, the system named is Calu-6 tumour xenograft. Kind of assay: in vivo solid tumour model of WO 00/47212, Calu-6 tumour xenograft. Particulars: once-daily oral, 28 days.
Assay [1] deals with c-Kit (stem cell factor receptor tyrosine kinase) (Homo sapiens, UniProt P10721). Briefly: c-Kit inhibition. Type of assay: biochemical.
Assay [2] deals with Calu-6 human lung tumour xenografts. Briefly: Calu-6 Human Lung Cancer Xenograft Model. Type of assay: in vivo. Particulars: athymic mice, p.o. 24 days. The protocol: Experiments were conducted in female athymic mice (Swiss nu/nu genotype, ≧6 weeks of age). Calu-6 human lung tumour xenografts were established in mice by injecting 1×10^6 cells ([…] containing 50% Matrigel®) subcutaneously in the dorsal flank. Tumour volumes were assessed using bilateral Vernier calliper measurement at least twice weekly and calculated using the formula (length×width)×√(length×width)×(π/6), where length was taken to be the longest diameter across the tumour and width the corresponding perpendicular. Mice were randomised into 4 treatment groups (10 mice/group) when the mean tumour volume reached approximately 0.2 cm^3. […] (0.5% w/v Methocel/0.1% w/v Tween 80).
Tumour growth inhibition from the start of treatment was assessed by comparison of the differences in tumour volume between control and treated groups.
(A xenograft is tissue or cells of one species grown in another, often human tumour cells in immunodeficient mice.)

Where two headings read alike, the source gives them in different places.

Sequence of c-Kit (stem cell factor receptor tyrosine kinase) (P10721 26-976): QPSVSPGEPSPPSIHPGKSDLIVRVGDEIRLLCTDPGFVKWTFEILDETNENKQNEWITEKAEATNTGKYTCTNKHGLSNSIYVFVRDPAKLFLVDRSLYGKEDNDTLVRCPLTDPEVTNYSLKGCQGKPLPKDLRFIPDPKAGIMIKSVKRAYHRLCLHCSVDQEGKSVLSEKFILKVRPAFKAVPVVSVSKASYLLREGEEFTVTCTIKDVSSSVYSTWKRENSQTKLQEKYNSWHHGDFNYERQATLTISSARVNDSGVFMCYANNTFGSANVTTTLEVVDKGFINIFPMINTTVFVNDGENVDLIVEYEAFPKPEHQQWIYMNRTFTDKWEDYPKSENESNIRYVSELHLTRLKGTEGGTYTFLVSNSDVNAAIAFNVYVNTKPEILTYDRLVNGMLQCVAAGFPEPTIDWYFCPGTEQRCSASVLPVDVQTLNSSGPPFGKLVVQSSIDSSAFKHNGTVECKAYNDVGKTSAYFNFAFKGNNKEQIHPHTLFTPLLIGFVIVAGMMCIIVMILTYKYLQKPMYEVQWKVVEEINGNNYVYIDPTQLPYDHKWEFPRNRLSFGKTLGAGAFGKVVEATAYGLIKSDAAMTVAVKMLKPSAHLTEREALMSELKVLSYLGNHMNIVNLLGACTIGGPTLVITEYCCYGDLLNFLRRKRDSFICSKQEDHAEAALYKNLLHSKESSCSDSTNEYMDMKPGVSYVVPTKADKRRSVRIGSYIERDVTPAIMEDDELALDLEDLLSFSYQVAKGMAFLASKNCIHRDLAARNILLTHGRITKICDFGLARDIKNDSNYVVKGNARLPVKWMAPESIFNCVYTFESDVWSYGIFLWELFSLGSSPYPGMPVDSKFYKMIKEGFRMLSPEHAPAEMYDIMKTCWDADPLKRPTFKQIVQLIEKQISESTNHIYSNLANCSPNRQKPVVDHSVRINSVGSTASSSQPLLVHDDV

Consider `COc1cc2c(Oc3ccc4[nH]c(C)cc4c3F)ncnc2cc1OCCCN1CCCC1` [AZD2171, 4-(4-fluoro-2-methyl-1H-indol-5-yloxy)-6-methoxy-7-(3-(pyrrolidin-1-yl)propoxy)quinazoline], for which the IC50 in the assay with HUVEC (VEGF-stimulated, read-out: IC50, VEGF-stimulated endothelial cell proliferation) was 0.4 ± 0.2 nM; in the assay with HUVEC (basal (no VEGF stimulation), read-out: IC50, basal endothelial cell proliferation), above 500 nM. For the same molecule, the “inhibition of growth of Calu-6 tumour xenograft” value is given as 49% in the assay with Calu-6 tumour xenograft (1.5 mg/kg/day, P<0.01); 69% with Calu-6 tumour xenograft (3 mg/kg/day, P<0.0001); 91% with Calu-6 tumour xenograft (6 mg/kg/day, P<0.0001). For the same molecule, the “inhibition of c-Kit” value in assay [1] was “inhibits”. This molecule returned a tumour growth inhibition in assay [2] (AZD2171 1.5 mg/kg once daily alone) of 47%.

On to `Cn1cnc2c(F)c(Nc3ccc(Br)cc3Cl)c(C(=O)NOCCO)cc21` [AZD6244, 6-(4-Bromo-2-chloro-phenylamino)-7-fluoro-3-methyl-3H-benzoimidazole-5-carboxylic acid (2-hydroxy-ethoxy)-amide], for which the tumour growth inhibition in assay [2] (AZD6244 3 mg/kg twice daily alone) was found to be 44%.

(Values after patent US20100130519A1 (priority 2007, published 2010).)
